Measured values: patent US6372757B1, “Phenylurea and phenylthio urea derivatives” (SmithKline Beecham p.l.c., priority 1998, dated 2002)
Structures can show the parent of a compound that is named as a salt. No end group written: not given here.

Tests used:
[1] = molecular target: T1, human orexin-1 receptor (Homo sapiens, UniProt O43613); assay: Orexin-1 receptor antagonist activity, FLIPR intracellular calcium assay in HEK293 cells against 3.0 nM human orexin-A; assay type: cell-based; conditions: HEK293 cells expressing human orexin-1 receptor; antagonism of 3.0 nM human orexin-A; Kb=IC50/(1+([3/EC50])
T1 construct: expressed in transfected cells; host or cells: HEK293
T1 sequence (O43613 1-425): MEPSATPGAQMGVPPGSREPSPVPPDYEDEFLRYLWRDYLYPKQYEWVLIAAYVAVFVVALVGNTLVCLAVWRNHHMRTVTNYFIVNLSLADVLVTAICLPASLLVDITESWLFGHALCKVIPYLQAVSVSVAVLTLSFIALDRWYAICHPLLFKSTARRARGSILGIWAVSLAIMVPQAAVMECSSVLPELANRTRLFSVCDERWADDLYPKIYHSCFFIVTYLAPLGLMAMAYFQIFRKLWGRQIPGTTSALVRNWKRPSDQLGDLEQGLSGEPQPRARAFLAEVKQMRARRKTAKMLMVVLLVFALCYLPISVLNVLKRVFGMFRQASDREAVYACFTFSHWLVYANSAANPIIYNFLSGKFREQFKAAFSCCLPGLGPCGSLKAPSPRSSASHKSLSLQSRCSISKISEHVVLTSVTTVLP
Procedure: The seeded plates were incubated overnight at 37° C. in 5% CO2.

[2] = Rat sleep/EEG studies, central administration at onset of normal sleep period; assay type: in vivo; conditions: at the expense of paradoxical sleep and slow wave sleep 2
Source text: Therefore, antagonists of orexin receptors may be useful in the treatment of sleep disorders including insomnia.

[3] = central administration, freely-feeding rats, 4 hour time period; cited from earlier work

Compound | Kb [1] | effect on arousal [2] | increase in food intake over control rats receiving vehicle [3]
CSc1ccc(NC(=O)Nc2ccnc3cccnc23)cc1 [Example 2, 1-(4-Methylthiophenyl)-3-[1,5]naphthyridin-4-yl urea hydrochloride] | < 100 nM | – | –
orexin-A: ligand for the orexin-1 receptor; 33-residue peptide, sequence given in the 1st table (QPLPDCCRQKTCSCRLYELLHGAGNHAAGILTL-NH2; not fully specified (residue 1, bridges); ends and bridges not checked; UniProt O43612 34-66, looked up) | – | does-related increase in arousal | approximately four-fold
